Experimental findings from PubChem BioAssay AID179 (DTP/NCI, 2004) are described below.

The source made the active and inactive calls.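 How the source made its calls: active means compounds giving half or more protection of infected cells from virus-caused growth loss, again on retest; inactive means the rest.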 *1 amine or outer side, *2 acyl side, *3 side chain or, on linkers, in order; H or OH if unused. Where a SMILES comes first, the peptide text is derived from it. [ ]: non-standard residue; d: D form. ξ: configuration not given here. X15 = O=C([C@H]1CCC[C@H]1N[*:1])[*:2]; ξW = NC(Cc1c[nH]c2ccccc12)C(=O)O; ξF = NC(Cc1ccccc1)C(=O)O; ξK = NCCCCC(N)C(=O)O; ξT = CC(O)C(N)C(=O)O

As usually defined, the EC50 is the concentration needed to bring the measured effect to its halfway point. One may read the IC50 as the midpoint of a concentration-inhibition curve. A lower IC50 goes with greater potency.

The assay has as its system CEM cells HIV-1 protection, formazan growth assay. The assay can be described thus: NCI AIDS Antiviral Assay. The following applies: for IC50: measured here: growth of uninfected CEM cells. The procedure, abridged: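 Soluble formazan readout of cell growth; CEM cells ± HIV-1; 5 drug concs. ≥50% protection → retest; ≥50% again = moderately active; reproducible 100% = confirmed active.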

For the molecule `Cc1cn(C2C[C@@H](/[N+]([O-])=C\c3ccccc3)C(CO[Si](C)(C)C(C)(C)C)O2)c(=O)[nH]c1=O` (some centres undefined), the EC50 was more than 200 µM and the IC50 stood at 24.5 µM. Regarding `Cn1c(=O)n2n(c1=O)C1C=CC2C2C=C(c3ccccc3)C21` (centres undefined), the result was inactive. As for `CC1=C/C(=N\N(C)C)C(C(O)(C(F)(F)F)C(F)(F)F)C(C)(C)C1` (centres undefined), the EC50 was more than 200 µM and the concentration for half-maximal inhibition (IC50) came to 102 µM. Turning to `O=c1n(Cc2ccccc2)c2ccccc2n1CC1CS1` (centres undefined), the EC50 was more than 45.7 µM and the IC50 was 19.5 µM. For the molecule `CCOC(=O)c1ccc(/C=C/c2cccn2C(=O)OC(C)(C)C)[nH]1`, the outcome was inactive. With `CSCCC(NOC(=O)Cc1ccccc1)P(=O)(O)c1ccccc1` (centres undefined), the half-maximal effective concentration (EC50) is 195 µM and the IC50 was 240 µM. The corresponding values for `CC(=O)OC[C@]12[C@H](OC(C)=O)[C@H](OC(C)=O)[C@@H]3C(O)[C@@]14OC3(C)COC(=O)c1cccnc1CCC(C)C(=O)OC([C@H](OC(C)=O)[C@@H]2OC(=O)c1ccccc1)[C@]4(C)O` (some centres undefined) are more than 30.2 µM and more than 30.2 µM. The corresponding values for `CN(C)CCCNC(=O)c1cc(NC(=O)c2cc(NC(=O)c3cc(NC(=O)c4ccnc(C(=O)Nc5cc(C(=O)Nc6cc(C(=O)Nc7cc(C(=O)NCCCN(C)C)n(C)c7)n(C)c6)n(C)c5)c4)cn3C)cn2C)cn1C` are more than 100 µM and more than 100 µM.

Turning to `CCNc1c(C(=O)N(CC)CC)c(=O)[nH]c2ncccc12`, the EC50 was more than 871 µM and the IC50 is more than 871 µM. `CCCCC[C@H]1CCCCCCCCCC(=O)OC2C(O[C@@H]3OC(C)[C@H](OC(=O)[C@@H](C)CC)C(O[C@@H]4OC(C)[C@H](O)C(O)[C@@H]4O)[C@@H]3OC(=O)[C@H](C)CC)[C@H](OC3C(O)[C@@H](O)C(C)O[C@H]3O1)OC(CO)[C@H]2O` (some centres undefined): the EC50 is more than 200 µM and the IC50 was found to be 11.2 µM. The corresponding values for `COc1ccc(NC(=O)CC(=O)N2N=C(N(CCC#N)c3cccc(C)c3)CC2c2ccccc2)cc1` (centres undefined) are more than 100 µM and more than 100 µM. For `O=C1CC(NC(=O)C(F)(F)F)c2c(Br)sc(N3CCOCC3)c21` (centres undefined), in that order: more than 200 µM and more than 200 µM. Turning to `O=S(=O)(O)c1cc(O)c2c(N=Nc3ccc(N=Nc4c(S(=O)(=O)O)cc5cc(Nc6ccccc6)ccc5c4O)c4ccccc34)cc(S(=O)(=O)O)cc2c1`, the outcome was inactive. Regarding `O=C1NC2CC1C(O)C2O` (centres undefined), the EC50 is more than 200 µM and the IC50 was more than 200 µM. Consider `CCOP(=O)(OCC)/C(=C/c1cccs1)CC(C)=O`, for which the EC50 is more than 200 µM and the IC50 is more than 200 µM. Consider `CCOP(=O)(OCC)/C(C#N)=C/c1cccc([N+](=O)[O-])c1`, for which the EC50 was more than 813 µM and the half-inhibitory concentration (IC50) turned out to be 166 µM. For `O=C1C=C2C[C@H]3C(O)C[C@]2(O1)[C@H]1CCCN31` (some centres undefined), in that order: more than 112 µM and more than 112 µM.

With `COC(=O)CCC(=O)N1CC1C` (centres undefined), the outcome was inactive. On to `N#CC(/C=C/c1ccccc1)NCCc1ccccc1` (centres undefined), for which the EC50 was more than 10.5 µM and the IC50 is more than 10.5 µM.

In the case of `CC(C)N1CNC(=O)C12CCN(CC1COc3ccccc3O1)CC2` (centres undefined), the EC50 was more than 200 µM and the IC50 was more than 200 µM. `COc1ccc2nc3c([N+](=O)[O-])ccc(NCCN(C)C)c3c(N)c2c1`: the EC50 was more than 200 µM and the IC50 came out at 0.794 µM. The corresponding values for `CC1N=C(SCc2ccc(Cl)cc2)N2C(C)N=C(SCc3ccc(Cl)cc3)N12` (centres undefined) are more than 21.9 µM and more than 21.9 µM.

Consider `COc1cc(/C=C2/N=C(c3ccccc3)N(C3=NNC4(C(=O)N3)c3ccccc3-c3ccccc34)NC2=O)ccc1O`, for which the EC50 is more than 100 µM and the concentration for half-maximal inhibition (IC50) came to 75.9 µM. The corresponding values for `COc1ccccc1N=Nc1c(-c2ccccc2)nn(C(=O)CC(=O)Nc2cccc(C)c2)c1-c1ccccc1` are more than 35.5 µM and 20.9 µM. For `CC1/C=C/C=C/CC/C=C/C=C/C=C/C=C/C(OC2OC(C)C(O)C(N)C2O)CC2OC(CC(O)C(O)CCC(O)CC(O)CC(O)CC(=O)OC(C)C(C)C1O)CC(O)C2C(=O)O` (centres undefined), in that order: more than 50.1 µM and 3.31 µM. The corresponding values for `COc1cccc2c1OC1(N3CCOCC3)CCCCC1C2C[N+](=O)[O-]` (centres undefined) are more than 200 µM and more than 200 µM. For `CC(=O)CCCCn1c(=O)c2c(ncn2C)n(C)c1=O`, the EC50 is more than 891 µM and the IC50 was more than 891 µM. Consider `O=C1C2C(C(=O)N1c1ccccc1)C1([N+](=O)[O-])C=C3c4ccccc4N(C(=O)c4ccccc4)C32C2C(=O)N(c3ccccc3)C(=O)C21` (centres undefined), for which the result was inactive. Consider `CC(=O)C1(N=Nc2ccc(S(=O)(=O)Nc3onc(C)c3C)cc2)CCOC1=O` (centres undefined), for which the EC50 was more than 200 µM and the IC50 was more than 200 µM. For the molecule `O=C1C[C@H](c2ccccc2)O[C@@H](c2ccccc2)C1`, the EC50 was more than 200 µM and the IC50 was more than 200 µM. As for `CCCCCCCCCCCCCCCC=C(c1cc(Cl)c(OC)c(C(=O)OC)c1)c1cc(Cl)c(OC)c(C(=O)OC)c1`, the EC50 was more than 6.61 µM and the IC50 is more than 6.61 µM. As to `O=C(O)C1C(C(=O)O)C2C=CC1C21CCCC1` (centres undefined), the EC50 was more than 380 µM and the IC50 is more than 380 µM. Consider `CCCCCCCC(=O)OCC1OC(n2cc(F)c(=O)[nH]c2=O)C(N)C(OC(=O)CCCCCCC)C1O` (centres undefined), for which the EC50 was more than 47.9 µM and the IC50 stood at 38.9 µM.

Take `CN(C)CCCNC(=O)c1cc(NC(=O)c2cc(NC(=O)c3cc(N4C(=O)c5ccccc5C4=O)cn3C)cn2C)cn1C`: the EC50 is more than 81.3 µM and the half-inhibitory concentration (IC50) was 57.5 µM.

Consider `c1ccc(-c2nc3c(N4CCOCC4)ncnc3o2)cc1`, for which the EC50 was more than 25.7 µM and the half-inhibitory concentration (IC50) was more than 25.7 µM. Turning to `CC(O)C1NC(=O)C(CCCCN)NC(=O)C(Cc2c[nH]c3ccccc23)NC(=O)C(Cc2ccccc2)NC(=O)[C@H]2CCC[C@H]2NC(=O)C(Cc2ccccc2)NC1=O` (some centres undefined) (cyclo([X15][ξF][ξW][ξK][ξT][ξF])), the EC50 is more than 200 µM and the IC50 was more than 200 µM. Turning to `C[CH2][Sn]([CH2]C)([O]C(=O)c1ccccc1F)[O][Sn]([CH2]C)([CH2]C)[O]C(=O)c1ccccc1F`, the EC50 is more than 39.8 µM and the IC50 worked out at 25.1 µM.

Regarding `CSc1cc(-c2ccccn2)nc(-c2ccccn2)c1.CSc1cc(-c2ccccn2)nc(-c2ccccn2)c1.[Ni+2].[O-][Cl+3]([O-])([O-])[O-]`, the EC50 was more than 200 µM and the IC50 is more than 200 µM. Regarding `COC(=O)c1cc(C(=CCl)c2cc(C(=O)OC)c(OC)c(Br)c2C)c(C)c(Br)c1OC`, the EC50 was more than 200 µM and the half-inhibitory concentration (IC50) stood at 6.46 µM. For `O=[N+]([O-])C(Cl)C(Cl)C(Cl)=C(Cl)Cl` (centres undefined), in that order: more than 200 µM and more than 200 µM. The corresponding values for `COc1ccc(C(NS(=O)(=O)c2ccc(C)cc2)c2c(C(CBr)OC)c3ccccc3n2S(=O)(=O)c2ccccc2)cc1OC` (centres undefined) are more than 151 µM and 31.6 µM. On to `O[C@@H]1[C@H]2CC(OCc3ccccc3)C[C@H]2C[C@@H]1O` (some centres undefined), for which the EC50 is more than 1000 µM and the 50% inhibitory concentration (IC50) is more than 1000 µM. As for `Cc1ccc(C2=Nc3ccccc3SC(c3cccc4c3OCO4)C2)cc1` (centres undefined), the EC50 is more than 14.1 µM and the IC50 was more than 14.1 µM.

Regarding `COC(=O)/C=C1\CC(C)C2=C(N1)SCC2=O` (centres undefined), the EC50 was more than 355 µM and the IC50 amounted to 138 µM. The corresponding values for `O=C1OC(OC/C(Br)=C(\Br)COC2OC(=O)C(Cl)=C2Cl)C(Cl)=C1Cl` (centres undefined) are more than 200 µM and 3.09 µM. Turning to `O=C(/C=C/c1ccccc1)CCC1C(=O)c2ccccc2C1=O`, the EC50 is more than 23.4 µM and the IC50 was more than 23.4 µM. As to `CCOC(=O)NC(Nc1ccc(C)cc1)(C(F)(F)F)C(F)(F)F`, the EC50 was more than 200 µM and the IC50 was more than 200 µM. On to `COc1ccc2cc1Oc1ccc(cc1)CC1=NCCc3cc(OC)c(cc31)Oc1c(OC)c(OC)c(OC)c3c1[C@H](C2)N(C)CC3`, for which the result was inactive. Regarding `Cc1noc2c1NC(=O)OC(C)(C)C2`, the EC50 was more than 447 µM and the IC50 was more than 447 µM. On to `Cc1ccc(O)c(C(c2ccc([N+](=O)[O-])cc2)c2cc(C)ccc2O)c1`, for which the outcome was inactive. For `CC(C)OC(=O)OCSc1ccccc1N=Cc1cccc([N+](=O)[O-])c1`, the EC50 was more than 200 µM and the IC50 was found to be 38 µM. As to `Cc1c2c(c(C)n1-c1ccccc1)C(=O)N(CCCCN1CCN(c3ccccc3)CC1)C2=O`, the EC50 is more than 200 µM and the IC50 stood at 8.91 µM.

For the molecule `CC(C)N1CN(C(C(=O)N[C@@H]2C(=O)N3C2SC(C)(C)C3C(=O)O)c2ccc(O)cc2)CSC1=S` (some centres undefined), the EC50 was more than 479 µM and the IC50 worked out at 79.4 µM. With `COc1ccc2[nH]c3c(C)c4ccnc(NCCCN(C)CCCNc5ccc([N+](=O)[O-])c6[nH]c7ccccc7c(=O)c56)c4c(C)c3c2c1`, the EC50 is more than 0.0501 µM and the IC50 was 0.0257 µM.

`CCOP(=O)(CCn1cnc2c(N)ncnc21)OCC`: the EC50 is 178 µM and the IC50 came to 437 µM. For `COc1ccccc1C1SCC(=O)N1c1ccc(-n2c(-c3ccccc3)nc3ccccc3c2=O)cc1` (centres undefined), in that order: more than 200 µM and 135 µM. Take `NCCSSc1ccc([N+](=O)[O-])cc1`: the outcome was inactive.

As to `O=S(=O)(O)C(I)S(=O)(=O)O`, the EC50 was more than 200 µM and the IC50 was more than 200 µM. Take `CC(NC(=O)c1ccccc1SC(=O)CCCCC[n+]1ccccc1)C(N)=O` (centres undefined): the EC50 is 2.75 µM and the IC50 came out at 30.2 µM. As to `O=C1c2ccccc2C(=O)N1CCc1ncc(-c2ccccc2)[nH]1`, the EC50 was more than 200 µM and the IC50 was more than 200 µM. In the case of `O=S(=O)(O)c1cc(S(=O)(=O)O)c2c(N=Nc3ccc(N=Nc4ccccc4)cc3)c(O)ccc2c1`, the EC50 is more than 100 µM and the IC50 was more than 100 µM. As for `Cc1ccc2c(c1)nc1n2C(N)=Nc2ccccc2S1`, the EC50 is more than 200 µM and the IC50 worked out at 11.5 µM. The corresponding values for `CC(C)(C)OC(=O)NC(Cc1ccccc1)/C(O)=C(\C#N)c1ccc([N+](=O)[O-])cc1` (centres undefined) are more than 200 µM and 83.2 µM. Turning to `Cc1cc2c(C=O)[nH]nc2c(C#N)c1C`, the outcome was inactive.
